# Where two headings read alike, the source gives them in different places.
# Test system: patients with advanced metastatic cancer
# Source text: In this phase 1 study, dose escalation was followed by expansion cohorts of once-daily, oral M2698 in continuous 21-day cycles. Primary objectives were to determine the maximum tolerated dose (MTD), dose-limiting toxicities (DLTs), and recommended phase 2 dose (RP2D). Secondary objectives were to assess safety and tolerability, pharmacokinetics (PK, including food effect) and antitumor activity. Pharmacodynamic biomarker assessments were exploratory. Treatment was discontinued if there was disease progression, toxicity or consent withdrawal.
# In Part 1, M2698 monotherapy was investigated in a dose escalation with a food effect cohort. In Part 2, M2698 was investigated as monotherapy (expansion cohort) to further characterize safety, tolerability and pharmacokinetics, and assess antitumor activity in PAM + patients without confounding markers (exploratory).
# Dose escalation analysis included all patients who experienced a DLT and those who received ≥ 80% of planned M2698 doses in cycle 1 without experiencing a DLT. Safety analysis included all patients who received ≥ 1 dose of M2698. PK analysis included all patients who received ≥ 1 dose of M2698 and had measurable plasma concentrations. Dose proportionality was tested using the power model (linear regression approach on the log -transformed scale).
smiles,measurement,setting,value
NC(=O)c1cccc2c(N[C@H](CN3CCC3)c3ccc(Cl)c(C(F)(F)F)c3)ncnc12 [M2698],M2698-related TEAE: Delusion,200 mg n=3,0
same,M2698-related TEAE: Depression,200 mg n=3,0
same,M2698-related TEAE: Diarrhoea,200 mg n=3,0
same,M2698-related TEAE: Diarrhoea haemorrhagic,200 mg n=3,0
same,M2698-related TEAE: Dizziness,200 mg n=3,0
same,M2698-related TEAE: Dry eye,200 mg n=3,0
same,M2698-related TEAE: Dry mouth,200 mg n=3,0
same,M2698-related TEAE: Dysgeusia,200 mg n=3,0
same,M2698-related TEAE: Dyspepsia,200 mg n=3,0
same,M2698-related TEAE: Dysphagia,200 mg n=3,0
same,M2698-related TEAE: Energy increased,200 mg n=3,0
same,M2698-related TEAE: Erythema,200 mg n=3,0
same,M2698-related TEAE: Euphoric mood,200 mg n=3,0
same,M2698-related TEAE: Eye disorders,200 mg n=3,0
same,M2698-related TEAE: Fatigue,200 mg n=3,0
same,M2698-related TEAE: Gamma-glutamyltransferase increased,200 mg n=3,0
same,M2698-related TEAE: Gastrointestinal disorders,200 mg n=3,1
same,M2698-related TEAE: Gastrooesophageal reflux disease,200 mg n=3,0
same,M2698-related TEAE: General disorders and administration site conditions,200 mg n=3,0
same,M2698-related TEAE: Headache,200 mg n=3,0
same,M2698-related TEAE: Hyperhidrosis,200 mg n=3,0
same,M2698-related TEAE: Hypokalaemia,200 mg n=3,0
same,M2698-related TEAE: Hypomagnesaemia,200 mg n=3,0
same,M2698-related TEAE: Insomnia,200 mg n=3,0
same,M2698-related TEAE: Investigations,200 mg n=3,0
same,M2698-related TEAE: Lipase increased,200 mg n=3,0
same,M2698-related TEAE: Lymphopenia,200 mg n=3,0
same,M2698-related TEAE: Metabolism and nutrition disorders,200 mg n=3,1
same,M2698-related TEAE: Mucosal inflammation,200 mg n=3,0
same,M2698-related TEAE: Nausea,200 mg n=3,1
same,M2698-related TEAE: Nervous system disorders,200 mg n=3,0
same,M2698-related TEAE: Nightmare,200 mg n=3,0
same,M2698-related TEAE: Onychomadesis,200 mg n=3,0
same,M2698-related TEAE: Paranoia,200 mg n=3,0
same,M2698-related TEAE: Photosensitivity reaction,200 mg n=3,0
same,M2698-related TEAE: Posterior reversible encephalopathy syndrome,200 mg n=3,0
same,M2698-related TEAE: Pruritus generalised,200 mg n=3,0
same,M2698-related TEAE: Psychiatric disorders,200 mg n=3,0
same,M2698-related TEAE: Rash,200 mg n=3,0
same,M2698-related TEAE: Rash maculo-papular,200 mg n=3,0
same,M2698-related TEAE: Skin and subcutaneous tissue disorders,200 mg n=3,0
same,M2698-related TEAE: Subjects with at least one event,200 mg n=3,1
same,M2698-related TEAE: Transaminases increased,200 mg n=3,0
same,M2698-related TEAE: Tremor,200 mg n=3,0
same,M2698-related TEAE: Vision blurred,200 mg n=3,0
same,M2698-related TEAE: Vomiting,200 mg n=3,0
same,M2698-related TEAE: White blood cell count decreased,200 mg n=3,0
same,M2698-related TEAE: Abnormal dreams,240 mg n=17,2
same,M2698-related TEAE: Affect lability,240 mg n=17,0
same,M2698-related TEAE: Alanine aminotransferase increased,240 mg n=17,0
same,M2698-related TEAE: Amylase increased,240 mg n=17,0
same,M2698-related TEAE: Anaemia,240 mg n=17,0
same,M2698-related TEAE: Angina pectoris,240 mg n=17,0
same,M2698-related TEAE: Anxiety,240 mg n=17,0
same,M2698-related TEAE: Aphasia,240 mg n=17,0
same,M2698-related TEAE: Ataxia,240 mg n=17,0
same,M2698-related TEAE: Blood and lymphatic system disorders,240 mg n=17,0
same,M2698-related TEAE: Blood creatine phosphokinase increased,240 mg n=17,0
same,M2698-related TEAE: Blood creatinine increased,240 mg n=17,1
same,M2698-related TEAE: Cardiac disorders,240 mg n=17,0
same,M2698-related TEAE: Cognitive disorder,240 mg n=17,1
same,M2698-related TEAE: Constipation,240 mg n=17,0
same,M2698-related TEAE: Decreased appetite,240 mg n=17,0
same,M2698-related TEAE: Delusion,240 mg n=17,0
same,M2698-related TEAE: Depression,240 mg n=17,1
same,M2698-related TEAE: Diarrhoea,240 mg n=17,2
same,M2698-related TEAE: Diarrhoea haemorrhagic,240 mg n=17,0
same,M2698-related TEAE: Dizziness,240 mg n=17,1
same,M2698-related TEAE: Dry eye,240 mg n=17,0
same,M2698-related TEAE: Dry mouth,240 mg n=17,0
same,M2698-related TEAE: Dysgeusia,240 mg n=17,0
same,M2698-related TEAE: Dyspepsia,240 mg n=17,0
same,M2698-related TEAE: Dysphagia,240 mg n=17,0
same,M2698-related TEAE: Energy increased,240 mg n=17,0
same,M2698-related TEAE: Erythema,240 mg n=17,0
same,M2698-related TEAE: Euphoric mood,240 mg n=17,0
same,M2698-related TEAE: Eye disorders,240 mg n=17,0
same,M2698-related TEAE: Fatigue,240 mg n=17,3
same,M2698-related TEAE: Gamma-glutamyltransferase increased,240 mg n=17,0
same,M2698-related TEAE: Gastrointestinal disorders,240 mg n=17,4
same,M2698-related TEAE: Gastrooesophageal reflux disease,240 mg n=17,1
same,M2698-related TEAE: General disorders and administration site conditions,240 mg n=17,3
same,M2698-related TEAE: Headache,240 mg n=17,1
same,M2698-related TEAE: Hyperhidrosis,240 mg n=17,0
same,M2698-related TEAE: Hypokalaemia,240 mg n=17,0
same,M2698-related TEAE: Hypomagnesaemia,240 mg n=17,0
same,M2698-related TEAE: Insomnia,240 mg n=17,0
same,M2698-related TEAE: Investigations,240 mg n=17,1
same,M2698-related TEAE: Lipase increased,240 mg n=17,0
same,M2698-related TEAE: Lymphopenia,240 mg n=17,0
same,M2698-related TEAE: Metabolism and nutrition disorders,240 mg n=17,0
same,M2698-related TEAE: Mucosal inflammation,240 mg n=17,0
same,M2698-related TEAE: Nausea,240 mg n=17,3
same,M2698-related TEAE: Nervous system disorders,240 mg n=17,3
same,M2698-related TEAE: Nightmare,240 mg n=17,0
same,M2698-related TEAE: Onychomadesis,240 mg n=17,0
same,M2698-related TEAE: Paranoia,240 mg n=17,0
same,M2698-related TEAE: Photosensitivity reaction,240 mg n=17,0
same,M2698-related TEAE: Posterior reversible encephalopathy syndrome,240 mg n=17,0
